Experimental findings from patent publication US20250179066A1, “ZWITTERIONIC ANTIBACTERIAL COMPOUNDS” (Hoffmann-La Roche Inc., priority 2022, published 2025) are described below.

SMILES strings stand for the structures. Where a name gives a salt, the structure may show the parent alone.

The subject of the first assay is Acinetobacter baumannii ATCC17961. Put plainly: Antimicrobial susceptibility testing: 90% growth inhibitory concentration (IC90) determination. As to conditions: 90% growth inhibitory concentration against Acinetobacter baumannii ATCC17961, Iso-Sensitest broth, OD 600 nm over 16 h; read-out: ATCC 17961 IC90. The format is cell-based. Summed up: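 OD600 monitored each minute over 16 h at 35±2° C for bacteria (~5×10^5 CFU/mL final) in Iso-Sensitest medium with 10-point twofold compound series (e.g. 10-0.0195 μM final). Concentration giving 90% growth inhibition in log phase reported as IC90.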
For `Cn1c(-c2cn(-c3cc4ccccc4s3)nc2C(F)(F)F)cnc1C(=O)Nc1ccc(C(=O)N2CCN(C(=O)C3CC[N+](CC(=O)O)(CC4CNC4)CC3)CC2)c(Cl)c1` (stereo not drawn) [Example 95, 2-[1-(Azetidin-3-ylmethyl)-4-[4-[4-[[5-[1-(benzothiophen-2-yl)-3-(trifluoromethyl)pyrazol-4-yl]-1-methyl-imidazole-2-carbonyl]amino]-2-chloro-benzoyl]piperazine-1-carbonyl]piperidin-1-ium-1-yl]Acetic Acid; Formic Acid; Formate], the IC90 (usually the concentration needed for an effect of 90%) was determined as 1760 nM.

The same assay, now with this note: Acinetobacter baumannii, ATCC17961, 16 h, 90% growth inhibitory concentration against Acinetobacter baumannii ATCC17961, Iso-Sensitest broth, OD 600 nm over 16 h; read-out: ATCC 17961 IC90.
For the molecule `Cn1c(-c2cn(-c3ccc(N)cn3)nc2C(F)(F)F)cnc1C(=O)Nc1ccc(C(=O)N2CCC(C(=O)N3CC[N+](CC(=O)O)(CC4CNC4)CC3)CC2)c(Cl)c1` [Example 87, 2-[4-[1-[4-[[5-[1-(5-amino-2-pyridyl)-3-(trifluoromethyl)pyrazol-4-yl]-1-methyl-imidazole-2-carbonyl]amino]-2-chloro-benzoyl]piperidine-4-carbonyl]-1-(azetidin-3-ylmethyl)piperazin-1-ium-1-yl]acetic acid. 1:1 2,2,2-trifluoroacetate], the IC90 came to 1410 nM.

As for `CNc1cc(-n2cc(-c3cnc(C(=O)Nc4ccc(C(=O)N5CCN(C(=O)C6CC[N+](CC(=O)O)(CC7CNC7)CC6)CC5)c(Cl)c4)n3C)c(C(F)(F)F)n2)ccn1` (stereo not drawn) [Example 88, 2-[1-(azetidin-3-ylmethyl)-4-[4-[2-chloro-4-[[1-methyl-5-[1-[2-(methylamino)-4-pyridyl]-3-(trifluoromethyl)pyrazol-4-yl]imidazole-2-carbonyl]amino]benzoyl]piperazine-1-carbonyl]piperidin-1-ium-1-yl]acetic acid. 1:1 2,2,2-trifluoroacetate], the IC90 came to 1410 nM.

As to `Cn1c(-c2cn(-c3ccc(N)cn3)nc2C(F)(F)F)cnc1C(=O)Nc1ccc(C(=O)N2C3CCC2CN(C(=O)C2CC[N+](CC(=O)O)(CC4CNC4)CC2)C3)c(Cl)c1` (stereo not drawn) [Example 89, 2-[4-[8-[4-[[5-[1-(5-amino-2-pyridyl)-3-(trifluoromethyl)pyrazol-4-yl]-1-methyl-imidazole-2-carbonyl]amino]-2-chloro-benzoyl]-3,8-diazabicyclo[3.2.1]octane-3-carbonyl]-1-(azetidin-3-ylmethyl)piperidin-1-ium-1-yl]acetic acid. 1:1 formate], the IC90 came out at 1490 nM.

Consider `Cn1c(-c2cn(-c3ccc(N)cn3)nc2C(F)(F)F)cnc1C(=O)Nc1ccc(C(=O)N2CCN(C(=O)CC[C@H](N)C(=O)O)CC2)c(Cl)c1` [Example 90, (2S)-2-amino-5-[4-[4-[[5-[1-(5-amino-2-pyridyl)-3-(trifluoromethyl)pyrazol-4-yl]-1-methyl-imidazole-2-carbonyl]amino]-2-chloro-benzoyl]piperazino]-5-keto-valeric acid. 1:1 2,2,2-trifluoroacetic acid], for which the IC90 worked out at 1520 nM.

`Cn1c(-c2cn(-c3ccc(N)cn3)nc2C(F)(F)F)cnc1C(=O)Nc1ccc(C(=O)N2CCN(C(=O)[C@@H](N)CC(=O)O)CC2)c(Cl)c1` [Example 91, (3S)-3-amino-4-[4-[4-[[5-[1-(5-amino-2-pyridyl)-3-(trifluoromethyl)pyrazol-4-yl]-1-methyl-imidazole-2-carbonyl]amino]-2-chloro-benzoyl]piperazino]-4-keto-butyric acid. 1:1 2,2,2-trifluoroacetic acid]: the IC90 turned out to be 1530 nM.

As for `Cn1c(-c2cn(-c3ccc(N)cn3)nc2C(F)(F)F)cnc1C(=O)Nc1ccc(C(=O)N2CC3CC4(C(=O)C5CC[N+](CC(=O)O)(CC6CNC6)CC5)CC(C2)N34)c(Cl)c1` (stereo not drawn) [Example 92, 2-[4-[3-[4-[[5-[1-(5-amino-2-pyridyl)-3-(trifluoromethyl)pyrazol-4-yl]-1-methyl-imidazole-2-carbonyl]amino]-2-chloro-benzoyl]-3,9-diazabicyclo[3.3.1]nonane-9-carbonyl]-1-(azetidin-3-ylmethyl)piperidin-1-ium-1-yl]acetic acid. 1:1 formate], the IC90 was 1620 nM.

With `Cn1c(-c2cn(-c3ccc(N)cn3)nc2C(F)(F)F)cnc1C(=O)Nc1ccc(C(=O)N2CCN(C(=O)C3CC[N+](CC(=O)O)(CC4CNC4)CC3)CC23CC3)c(Cl)c1` (stereo not drawn) [Example 93, 2-[4-[4-[4-[[5-[1-(5-amino-2-pyridyl)-3-(trifluoromethyl)pyrazol-4-yl]-1-methyl-imidazole-2-carbonyl]amino]-2-chloro-benzoyl]-4,7-diazaspiro[2.5]octane-7-carbonyl]-1-(azetidin-3-ylmethyl)piperidin-1-ium-1-yl]acetic acid. 1:1 formate], the IC90 amounted to 1660 nM.

As for `Cn1c(-c2cn(-c3sncc3N)nc2C(F)(F)F)cnc1C(=O)Nc1ccc(C(=O)N2CCN(C(=O)C3CC[N+](CC(=O)O)(CC4CNC4)CC3)CC2)c(Cl)c1` (stereo not drawn) [Example 94, 2-[4-[4-[4-[[5-[1-(4-Aminoisothiazol-5-yl)-3-(trifluoromethyl)pyrazol-4-yl]-1-methyl-imidazole-2-carbonyl]amino]-2-chloro-benzoyl]piperazine-1-carbonyl]-1-(azetidin-3-ylmethyl)piperidin-1-ium-1-yl]acetic Acid.1:1 formate], the IC90 was determined as 1730 nM.

For the molecule `Cn1c(-c2cn(-c3ccc(N)cn3)nc2C(F)(F)F)cnc1C(=O)Nc1ccc(C(=O)N2CCC(C(=O)NCCCc3cc[n+](CC(=O)O)c(CCCN)c3)CC2)c(Cl)c1` [Example 96, 2-[2-(3-aminopropyl)-4-[3-[[1-[4-[[5-[1-(5-amino-2-pyridyl)-3-(trifluoromethyl)pyrazol-4-yl]-1-methyl-imidazole-2-carbonyl]amino]-2-chloro-benzoyl]piperidine-4-carbonyl]amino]propyl]pyridin-1-ium-1-yl]acetic acid. 1:1 2,2,2-trifluoroacetic acid. 1:1 2,2,2-trifluoroacetate], the IC90 amounted to 1820 nM.

On to `COCC1CN(C(=O)c2ccc(NC(=O)c3ncc(-c4cn(-c5ccc(N)cn5)nc4C(F)(F)F)n3C)cc2Cl)CCN1C(=O)C1CC[N+](CC(=O)O)(CC2CNC2)CC1` (stereo not drawn) [Example 97, 2-[4-[4-[4-[[5-[1-(5-amino-2-pyridyl)-3-(trifluoromethyl)pyrazol-4-yl]-1-methyl-imidazole-2-carbonyl]amino]-2-chloro-benzoyl]-2-(methoxymethyl)piperazine-1-carbonyl]-1-(azetidin-3-ylmethyl)piperidin-1-ium-1-yl]acetic acid. 1:1 formate], for which the IC90 came out at 1840 nM.

Consider `Cn1c(-c2cn(-c3ccc4[nH]c(CCCO)cc4n3)nc2C(F)(F)F)cnc1C(=O)Nc1ccc(C(=O)N2CCN(C(=O)C3CC[N+](CCCN)(CC(=O)O)CC3)CC2)c(Cl)c1` (stereo not drawn) [Example 98, cis-2-[1-(3-aminopropyl)-4-[4-[2-chloro-4-[[5-[1-[2-(3-hydroxypropyl)-1H-pyrrolo[3,2-b]pyridin-5-yl]-3-(trifluoromethyl)pyrazol-4-yl]-1-methyl-imidazole-2-carbonyl]amino]benzoyl]piperazine-1-carbonyl]piperidin-1-ium-1-yl]acetic acid;chloride], for which the IC90 was determined as 387 nM.
